One experiment relates to HCT116 MTAP KO cells. Description: Inhibitory activity against cell proliferation (CellTiter Glo, 6 days), HCT116 MTAP KO. The conditions noted are these: for IC50: Homo sapiens, HCT-116, 144 h, HCT116 MTAP KO cells, 6 days, CellTiter Glo, read-out: HCT116 MTAP KO IC50; for Selectivity HCT 116-WT/ HCT116 MTAP KO: ratio of IC50 HCT116-WT / HCT116 MTAP KO. The class given is cell-based. The essentials: (§1)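 HCT116 wild-type or MTAP-knockout cells (250/well, McCoy's 5A + 10% FBS) treated after overnight culture with 8-point 4-fold dilutions from 10000 nM for 6 days at 37 °C. Viability read by CellTiter Glo luminescence on day 7; IC50 calculated against DMSO controls.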
For orientation: Cellular ATP, detected with luciferase, serves as a proxy for viable cell number.

Another experiment has as its target PRMT5-MTA (Homo sapiens, UniProt O14744). Description: Enzymatic inhibitory activity against PRMT5-MTA (AlphaScreen). Type of experiment: biochemical. The essentials: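 PRMT5/[…] (1 nM) was preincubated for 30 min at room temperature with 1 µM […] and 2.5 µM SAM, then exposed to compound (10-point, 3-fold from 1000 nM) for 15 min at 23 °C. Histone H4 substrate (5 nM) was added and reacted for 45 min at 23 °C. Symmetric dimethyl-R3 H4 was detected by AlphaScreen and IC50 calculated.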

The subject of another experiment is HCT116-WT cells. Description: Inhibitory activity against cell proliferation (CellTiter Glo, 6 days), HCT116-WT. The class given is cell-based. The conditions noted are these: 144 h, HCT116-WT cells, 6 days, CellTiter Glo; read-out: HCT116-WT IC50. The essentials: as §1

Where two headings read alike, the source gives them in different places.

The IC50 is the concentration that gives 50% inhibition.

Chain of PRMT5-MTA (O14744 whole entry): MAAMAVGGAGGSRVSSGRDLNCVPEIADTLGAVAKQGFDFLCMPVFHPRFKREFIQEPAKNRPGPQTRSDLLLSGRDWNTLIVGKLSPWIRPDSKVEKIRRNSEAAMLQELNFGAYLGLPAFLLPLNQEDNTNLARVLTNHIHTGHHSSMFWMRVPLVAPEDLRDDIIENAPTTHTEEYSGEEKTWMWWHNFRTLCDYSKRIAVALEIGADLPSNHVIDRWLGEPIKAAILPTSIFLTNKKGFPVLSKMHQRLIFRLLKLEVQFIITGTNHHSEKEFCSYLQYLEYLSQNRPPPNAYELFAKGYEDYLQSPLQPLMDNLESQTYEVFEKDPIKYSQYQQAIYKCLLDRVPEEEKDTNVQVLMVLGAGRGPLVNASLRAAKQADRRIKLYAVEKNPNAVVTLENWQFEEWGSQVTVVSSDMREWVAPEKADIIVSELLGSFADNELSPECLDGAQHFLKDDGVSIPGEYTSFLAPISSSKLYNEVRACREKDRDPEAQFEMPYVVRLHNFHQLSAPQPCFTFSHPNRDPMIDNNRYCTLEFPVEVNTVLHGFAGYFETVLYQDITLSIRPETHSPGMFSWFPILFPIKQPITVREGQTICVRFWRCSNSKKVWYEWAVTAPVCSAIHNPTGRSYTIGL
Chain of PRMT5-MTA (Q9BQA1 whole entry partner): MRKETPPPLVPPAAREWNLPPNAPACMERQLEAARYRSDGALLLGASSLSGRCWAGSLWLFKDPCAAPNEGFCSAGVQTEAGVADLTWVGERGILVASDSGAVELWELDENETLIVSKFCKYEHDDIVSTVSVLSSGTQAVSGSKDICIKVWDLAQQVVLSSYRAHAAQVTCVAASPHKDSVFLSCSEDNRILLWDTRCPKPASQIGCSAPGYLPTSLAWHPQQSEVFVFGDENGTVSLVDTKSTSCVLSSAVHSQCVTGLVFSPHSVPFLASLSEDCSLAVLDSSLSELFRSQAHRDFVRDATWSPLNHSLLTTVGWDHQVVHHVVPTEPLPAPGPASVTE

In the case of `Cc1cc2cc(C(=O)N(Cc3ccc(-c4cscn4)cn3)N(C)c3ncccn3)ccc2nc1N` [Example 221, 2-amino-N',3-dimethyl-N'-(pyrimidin-2-yl)-N-((5-(thiazol-4-yl)pyridin-2-yl)methyl)quinoline-6-carbohydrazide], the figures for the 50% inhibitory concentration (IC50) with HCT116 MTAP KO cells, at PRMT5-MTA (read-out: IC50) and in the experiment on HCT116-WT cells were 69 nM, 2.3 nM and 1870 nM, respectively. In addition, the “Selectivity HCT 116-WT/ HCT116 MTAP KO” value with HCT116 MTAP KO cells was 27.16.

Consider `Cn1ncc2c(N)nc3cc(Cl)c(C(=O)N4CC(C(F)(F)F)CN4c4cccc(F)n4)cc3c21` (stereo not shown) [Example 353, (4-amino-7-chloro-1-methyl-1H-pyrazolo [4,3-c]quinolin-8-yl)(2-(6-fluoropyridin-2-yl)-4-(trifluoromethyl)pyrazolidin-1-yl) methanone], for which the concentration for half-maximal inhibition (IC50) in the experiment with HCT116 MTAP KO cells amounted to 108 nM; at PRMT5-MTA (read-out: IC50) it was 6.3 nM; in the experiment with HCT116-WT cells it was 1820 nM. In addition, the “Selectivity HCT 116-WT/ HCT116 MTAP KO” value in the experiment with HCT116 MTAP KO cells stood at 16.81.

Regarding `Cc1cc2cc(C(=O)N(Cc3ccc(-c4scnc4C)cn3)N(C)c3nccc4nccnc34)ccc2nc1N` [Example 185, 2-amino-N',3-dimethyl-N-((5-(4-methylthiazol-5-yl)pyridin-2-yl)methyl)-N'-(pyrido[3,4-b]pyrazin-5-yl)quinoline-6-carbohydrazide], the half-maximal inhibitory concentration (IC50) in the experiment on HCT116 MTAP KO cells worked out at 7.5 nM; at PRMT5-MTA (read-out: IC50), 4.7 nM; with HCT116-WT cells it was 128 nM. The “Selectivity HCT 116-WT/ HCT116 MTAP KO” value with HCT116 MTAP KO cells is 17.07.

Consider `CN(c1ncccn1)N(Cc1ccc(C(F)(F)F)cn1)C(=O)c1ccc2nc(N)c(Br)cc2c1` [Example 303, 2-amino-3-bromo-N'-methyl-N'-(pyrimidin-2-yl)-N-((5-(trifluoromethyl)pyridin-2-yl)methyl)quinoline-6-carbohydrazide], for which the IC50 was 110 nM in the experiment with HCT116 MTAP KO cells, 3 nM on PRMT5-MTA (read-out: IC50) and 2990 nM in the experiment on HCT116-WT cells. Moreover, the “Selectivity HCT 116-WT/ HCT116 MTAP KO” value in the experiment on HCT116 MTAP KO cells was found to be 27.20.

In the case of `Cc1cc2cc(C(=O)N(Cc3ccc(-c4cc[nH]n4)cn3)N(C)c3ncccn3)ccc2nc1N` [Example 142, N-((5-(1H-pyrazol-3-yl)pyridin-2-yl)methyl)-2-amino-N',3-dimethyl-N'-(pyrimidin-2-yl)quinoline-6-carbohydrazide], the IC50 in the experiment with HCT116 MTAP KO cells stood at 201 nM; at PRMT5-MTA (read-out: IC50), 4.1 nM; in the experiment on HCT116-WT cells, 3910 nM. Besides, the “Selectivity HCT 116-WT/ HCT116 MTAP KO” value in the experiment with HCT116 MTAP KO cells is reported as 19.43.

In the case of `Nc1nc2ccc(C(=O)N(Cc3ccc(C(F)(F)F)cn3)N(c3ncccn3)C3CC3)cc2cc1CO` [Example 320, 2-amino-N'-cyclopropyl-3-(hydroxymethyl)-N'-(pyrimidin-2-yl)-N-((5-(trifluoromethyl)pyridin-2-yl)methyl)quinoline-6-carbohydrazide], the results for the concentration for half-maximal inhibition (IC50) in the experiment with HCT116 MTAP KO cells, on PRMT5-MTA (read-out: IC50) and in the experiment with HCT116-WT cells were 102 nM, 5.5 nM and 2520 nM, respectively. Further, in the experiment on HCT116 MTAP KO cells, the “Selectivity HCT 116-WT/ HCT116 MTAP KO” value is given as 24.70.

Consider `Cn1ncc2c(N)nc3cc(Cl)c(C(=O)N4CC(F)(F)CN4c4cccc(F)c4F)cc3c21` [Example 461, (4-amino-7-chloro-1-methyl-1H-pyrazolo [4,3-c]quinolin-8-yl)(2-(2,3-difluorophenyl)-4,4-difluoropyrazolidin-1-yl)methanone], for which the concentration for half-maximal inhibition (IC50) in the experiment on HCT116 MTAP KO cells was 15 nM; on PRMT5-MTA (read-out: IC50), 6.8 nM; in the experiment with HCT116-WT cells, 295 nM. Moreover, in the experiment with HCT116 MTAP KO cells, the “Selectivity HCT 116-WT/ HCT116 MTAP KO” value came to 19.67.

For the compound `[2H]c1nc(C)c(-c2ccc(CN(C(=O)c3ccc4nc(N)c(C)cc4c3)N(c3ncccn3)C3CC3)nc2)s1` [Example 238, 2-amino-N'-cyclopropyl-3-methyl-N-((5-(4-methylthiazol-5-yl-2d)pyridin-2-yl)methyl)-N'-(pyrimidin-2-yl)quinoline-6-carbohydrazide], the IC50 stood at 5.1 nM in the experiment with HCT116 MTAP KO cells, 5.7 nM on PRMT5-MTA (read-out: IC50) and 112 nM in the experiment on HCT116-WT cells. For the same compound, the “Selectivity HCT 116-WT/ HCT116 MTAP KO” value with HCT116 MTAP KO cells was determined as 21.96.

As for `Cc1cc2cc(C(=O)N(Cc3ncc(-c4cccnc4)cc3F)N(C)c3ncccn3)ccc2nc1N` [Example 222, 2-amino-N-((5-fluoro-[3,3'-bipyridine]-6-yl)methyl)-N',3-dimethyl-N'-(pyrimidin-2-yl)quinoline-6-carbohydrazide], the half-maximal inhibitory concentration (IC50) in the experiment on HCT116 MTAP KO cells turned out to be 20 nM; on PRMT5-MTA (read-out: IC50) it was 1.4 nM; in the experiment on HCT116-WT cells, 328 nM. The “Selectivity HCT 116-WT/ HCT116 MTAP KO” value with HCT116 MTAP KO cells is 16.40.

Take `C=C1CN(C(=O)c2cc3c(cc2Cl)nc(N)c2cnn(C)c23)N(c2ncc(Br)cc2F)C1` [Example 430, (4-amino-7-chloro-1-methyl-1H-pyrazolo [4,3-c]quinolin-8-yl)(2-(5-bromo-3-fluor opyridin-2-yl)-4-methylenepyrazolidin-1-yl)methanone]: the figures for the IC50 in the experiment with HCT116 MTAP KO cells, on PRMT5-MTA (read-out: IC50) and with HCT116-WT cells were 22 nM, 5.5 nM and 585 nM, respectively. The “Selectivity HCT 116-WT/ HCT116 MTAP KO” value in the experiment with HCT116 MTAP KO cells is given as 26.59.

As for `[2H]C([2H])([2H])N(c1ncccn1)N(Cc1ccc(C(F)(F)F)cn1)C(=O)c1ccc2nc(N)c(C)cc2c1` [Example 2, 2-amino-3-methyl-N'-(methyl-d3)-N'-(pyrimidin-2-yl)-N-((5-(trifluoromethyl)pyridin-2-yl)methyl)quinoline-6-carbohydrazide], the half-inhibitory concentration (IC50) was 30 nM in the experiment with HCT116 MTAP KO cells, 2.1 nM on PRMT5-MTA (read-out: IC50) and 820 nM in the experiment with HCT116-WT cells. Also, the “Selectivity HCT 116-WT/ HCT116 MTAP KO” value in the experiment with HCT116 MTAP KO cells is 27.33.

As to `Cc1cc2cc(C(=O)N(Cc3ccc(C(F)(F)F)cn3)N(C)c3ncccc3Cl)ccc2nc1N` [Example 66, 2-amino-N'-(3-chloropyridin-2-yl)-N',3-d imethyl-N-((5-(trifluoromethyl)pyridin-2-yl)methyl)quinoline-6-carbohydrazide], the IC50 in the experiment on HCT116 MTAP KO cells was found to be 124 nM; on PRMT5-MTA (read-out: IC50), 3.9 nM; in the experiment on HCT116-WT cells, 1990 nM. Further, the “Selectivity HCT 116-WT/ HCT116 MTAP KO” value with HCT116 MTAP KO cells is reported as 16.06.

For the compound `Cc1cc2nc(N)c3c(C)nn(C)c3c2cc1C(=O)N1CC(C)CN1c1ncccc1F` (stereo not shown) [Example 509, (4-amino-1,3,7-trimethyl-1H-pyrazolo[4,3-c]quinolin-8-yl)(2-(3-fluoropyridin-2-yl)-4-methylpyrazolidin-1-yl) methanone], the IC50 is 443 nM in the experiment on HCT116 MTAP KO cells, 4.3 nM at PRMT5-MTA (read-out: IC50) and > 10000 nM in the experiment with HCT116-WT cells.

As for `CN(c1ncccn1)N(Cc1ccc(C(F)(F)F)cn1)C(=O)c1ccc2nc(N)c(C3CC3)cc2c1` [Example 25, 2-amino-3-cyclopropyl-N'-methyl-N'-(pyrimidin-2-yl)-N-((5-(trifluoromethyl)pyridin-2-yl)methyl)quinoline-6-carbohydrazide], the values for the IC50 in the experiment on HCT116 MTAP KO cells, on PRMT5-MTA (read-out: IC50) and in the experiment with HCT116-WT cells were 110 nM, 2 nM and 2820 nM, respectively. Also, in the experiment with HCT116 MTAP KO cells, the “Selectivity HCT 116-WT/ HCT116 MTAP KO” value worked out at 25.64.

Turning to `Cc1cc2cc(C(=O)N(Cc3ccc(-c4cnn(CF)c4)cn3)N(C)c3ncccn3)ccc2nc1N` [Example 233, 2-amino-N-((5-(1-(fluoromethyl)-1H-pyrazol-4-yl)pyridin-2-yl)methyl)-N',3-dimet hyl-N'-(pyrimidin-2-yl)quinoline-6-carbo hydrazide], the IC50 with HCT116 MTAP KO cells was 39 nM; at PRMT5-MTA (read-out: IC50), 4.4 nM; with HCT116-WT cells, 1020 nM. Besides, the “Selectivity HCT 116-WT/ HCT116 MTAP KO” value with HCT116 MTAP KO cells is reported as 26.28.

In the case of `Cc1cc2cc(C(=O)N(Cc3ccc(C(F)(F)F)nn3)N(C)c3ncccn3)ccc2nc1N` [Example 124, 2-amino-N',3-dimethyl-N'-(pyrimidin-2-yl)-N-((6-(trifluoromethyl)pyridazin-3-yl)methyl)quinoline-6-carbohydrazide], the IC50 worked out at 220 nM with HCT116 MTAP KO cells, 5.4 nM on PRMT5-MTA (read-out: IC50) and 6450 nM with HCT116-WT cells. Moreover, the “Selectivity HCT 116-WT/ HCT116 MTAP KO” value with HCT116 MTAP KO cells amounted to 29.33.

`CCN(c1ncccn1)N(Cc1ccc(C(F)(F)F)cn1)C(=O)c1ccc2nc(N)c(C)cc2c1` [Example 6, 2-amino-N'-ethyl-3-methyl-N'-(pyrimidin-2-yl)-N-((5-(trifluoromethyl)pyridin-2-yl)methyl)quinoline-6-carbohydrazide]: the IC50 in the experiment with HCT116 MTAP KO cells stood at 95 nM; on PRMT5-MTA (read-out: IC50), 1.5 nM; in the experiment on HCT116-WT cells it was 1380 nM. Besides, in the experiment with HCT116 MTAP KO cells, the “Selectivity HCT 116-WT/ HCT116 MTAP KO” value is on record as 14.55.

On to `Cc1cc2cc(C(=O)N(Cc3ccc(-c4nncs4)cn3)N(C)c3nccc4nccnc34)ccc2nc1N` [Example 232, N-((5-(1,3,4-thiadiazol-2-yl)pyridin-2-yl)methyl)-2-amino-N',3-dimethyl-N'-(pyrido[3,4-b]pyrazin-5-yl)quinoline-6-carbohy drazide], for which the results for the IC50 in the experiment on HCT116 MTAP KO cells, at PRMT5-MTA (read-out: IC50) and in the experiment with HCT116-WT cells were 46 nM, 4.3 nM and 995 nM, respectively. For the same compound, the “Selectivity HCT 116-WT/ HCT116 MTAP KO” value in the experiment on HCT116 MTAP KO cells was found to be 21.63.

Take `Cc1cc2cc(C(=O)N(Cc3ccc(-c4ccsc4)cn3)N(C)c3ncccn3)ccc2nc1N` [Example 201, 2-amino-N',3-dimethyl-N'-(pyrimidin-2-y 1)-N-((5-(thien-3-yl)pyridin-2-yl)methyl) quinoline-6-carbohydrazide]: the results for the IC50 in the experiment on HCT116 MTAP KO cells, on PRMT5-MTA (read-out: IC50) and with HCT116-WT cells were 51 nM, 2.1 nM and 1240 nM, respectively. In addition, the “Selectivity HCT 116-WT/ HCT116 MTAP KO” value with HCT116 MTAP KO cells is given as 24.25.

For `Cn1ncc2c(N)nc3cc(Cl)c(C(=O)N4CC(CF)CN4c4ncccc4F)cc3c21` (stereo not shown) [Example 359, (4-amino-7-chloro-1-methyl-1H-pyrazolo[4,3-c]quinolin-8-yl)(4-(fluoromethyl)-2-(3-fluoropyridin-2-yl)pyrazolin-1-yl)methanone], the figures for the concentration for half-maximal inhibition (IC50) in the experiment with HCT116 MTAP KO cells, against PRMT5-MTA and in the experiment with HCT116-WT cells were 50 nM, 2.7 nM and 1180 nM, respectively. In addition, in the experiment with HCT116 MTAP KO cells, the “Selectivity HCT 116-WT/ HCT116 MTAP KO” value came to 23.50.

The record behind these values is EP4745134A1 (Jiangsu Yahong Meditech Co., Ltd., priority 2023, dated 2025).
